# Laboratory results from the supplement of paper PMC10307832.
# Assays:
# Assay in all cases: relative viability (nuclei count vs DMSO), 5 days (fraction); higher = more cells survive
# Crenolanib + Pictilisib = compound: CC1(COc2ccc3c(c2)ncn3-c2ccc3cccc(N4CCC(N)CC4)c3n2)COC1 [Crenolanib] + CS(=O)(=O)N1CCN(Cc2cc3nc(-c4cccc5[nH]ncc45)nc(N4CCOCC4)c3s2)CC1 [Pictilisib] (partner 1 µM)
# How it was run: (§1)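 Lung cancer cell lines in 1536-well plates got either a single drug or a fixed anchor-drug dose together with five library-drug doses (not always all listed) in √10 steps, by pin tool, on the day after seeding. Nuclei were counted after 5 days, and relative viability is the treated-to-vehicle ratio of nuclei counts. Values are medians of duplicate plates.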
# Crenolanib + Crizotinib = compound: CC1(COc2ccc3c(c2)ncn3-c2ccc3cccc(N4CCC(N)CC4)c3n2)COC1 [Crenolanib] + C[C@@H](Oc1cc(-c2cnn(C3CCNCC3)c2)cnc1N)c1c(Cl)ccc(F)c1Cl [Crizotinib] (partner 1 µM)
# How it was run: as §1
# Tivantinib + Bortezomib = compound: O=C1NC(=O)[C@@H](c2cn3c4c(cccc24)CCC3)[C@@H]1c1c[nH]c2ccccc12 [Tivantinib] + CC(C)C[C@H](NC(=O)[C@H](Cc1ccccc1)NC(=O)c1cnccn1)B(O)O [Bortezomib] (partner 0.002 µM)
# How it was run: as §1
# Tivantinib + Phenformin = compound: O=C1NC(=O)[C@@H](c2cn3c4c(cccc24)CCC3)[C@@H]1c1c[nH]c2ccccc12 [Tivantinib] + N=C(N)NC(=N)NCCc1ccccc1 [Phenformin] (partner 250 µM)
# How it was run: as §1
cell line,measurement,setting,value
UMC-11,relative viability,Crenolanib + Pictilisib; first compound 0.01 µM,0.76
same,relative viability,Crenolanib + Pictilisib; first compound 0.03162 µM,0.834
same,relative viability,Crenolanib + Pictilisib; first compound 0.1 µM,0.787
same,relative viability,Crenolanib + Pictilisib; first compound 0.3162 µM,0.848
same,relative viability,Crenolanib + Pictilisib; first compound 1 µM,0.733
same,relative viability,Crenolanib + Crizotinib; first compound 0.01 µM,0.624
same,relative viability,Crenolanib + Crizotinib; first compound 0.03162 µM,0.568
same,relative viability,Crenolanib + Crizotinib; first compound 0.1 µM,0.674
same,relative viability,Crenolanib + Crizotinib; first compound 0.3162 µM,0.804
same,relative viability,Crenolanib + Crizotinib; first compound 1 µM,0.606
same,relative viability,Tivantinib + Bortezomib; first compound 0.01 µM,0.678
same,relative viability,Tivantinib + Bortezomib; first compound 0.03162 µM,0.734
same,relative viability,Tivantinib + Bortezomib; first compound 0.1 µM,0.551
same,relative viability,Tivantinib + Bortezomib; first compound 0.3162 µM,0.969
same,relative viability,Tivantinib + Phenformin; first compound 0.01 µM,0.331
same,relative viability,Tivantinib + Phenformin; first compound 0.03162 µM,0.338
same,relative viability,Tivantinib + Phenformin; first compound 0.1 µM,0.289
same,relative viability,Tivantinib + Phenformin; first compound 0.3162 µM,0.371
